Measurements reported in patent publication US20250041312A1, “METHODS OF ADMINISTERING A MODULATOR OF HEMOGLOBIN” (Global Blood Therapeutics, Inc., priority 2021, published 2025).
Like-named read-outs stand apart in the source and are kept apart here. Marks after values point to notes of the source that are not given here.

How the values were obtained:
hemoglobin = target: T1, hemoglobin (Homo sapiens, UniProt P68871+P69905); assay: Percent Hb occupancy after single doses, healthy volunteers; format: in vivo; settings: for % Hb occupancy based on Cmax: mean
T1 construct: divided by the molar concentration of hemoglobin in RBCs; endogenous in cells; host or cells: red blood cells of healthy volunteers (in vivo)
Protocol: In some embodiments, the therapeutically effective amount is determined by measuring the percent of hemoglobin occupied by the compound, i.e., the percent Hb occupancy. The percent Hb occupancy is a measure of target engagement defined as the percentage of hemoglobin bound by a compound (e.g., Compound I) calculated as the molar concentration of the compound (e.g., Compound I) in RBCs divided by the molar concentration of hemoglobin in RBCs (the mean corpuscular hemoglobin concentration calculated from the hematology panel). The values for concentration of a compound (e.g., Compound I) in RBCs is calculated from the concentrations in whole blood and plasma, and the hematocrit.
Percent hemoglobin occupancy was calculated as follows, wherein MCHC refers to mean corpuscular hemoglobin concentration, and Hct refers to hematocrit: […]

[1] = SCD cohort safety (TEAEs); format: in vivo, human
Protocol: (§1) After a washout period of at least 56 days (so that elimination PK of Compound I could be assessed), the patients were administered a loading dose of 300 mg per day of Compound I for one day followed by 200 mg per day of Compound I for one day, and then were administered a maintenance dose of 50 mg per day of Compound I for five weeks (“MAD-1 Cohort”). The same patients then received another loading dose of 500 mg per day of Compound I for one day followed by 400 mg per day of Compound I for one day, and then were administered another maintenance dose of 100 mg per day of Compound I for three weeks (“MAD-2 Cohort”). The total treatment period of the MAD-1 Cohort and MAD-2 Cohort was 8 weeks.
(§2) Primary endpoints were safety and tolerability. Key secondary endpoints included PK and the relationship between time-matched Compound I concentrations and changes in clinical measures of anemia and hemolysis from baseline.
The majority of treatment emergent adverse events were grade 1 or 2 and unrelated to study drug.
(§3) Following the conclusion of the MAD-2 study and a washout period of about 8 months, the selected patients (n=4) were administered a loading dose of 300 mg BID for 4 days, followed thereafter by a maintenance dose of 150 mg QD (MAD-3 Cohort).

[2] = SCD cohort PK after repeated dosing; format: in vivo, human; settings: for Cmax: 150 mg
Protocol: as §1, §3
The concentrations of Compound I in whole blood and plasma at week 6 in patients who participated in the MAD-3 cohort are shown in Table 19.

[3] = SCD cohort clinical measures of anemia and hemolysis (Hb, hematocrit, hemolysis markers); format: in vivo, human
Protocol: as §1, §2, §3
Primary endpoints were safety and tolerability. Key secondary endpoints included PK and the relationship between time-matched Compound I concentrations and the changes in clinical measures of anemia and hemolysis from baseline.

[4] = MAD-3 SCD patients N=4 (300 mg BID x 4 days, then 150 mg QD)
[5] = SCD N=6, single dose and multiple dose portions (Table 13A)
[6] = SCD n=6, single dose, MAD-1 (50 mg qd) and MAD-2 (100 mg qd) (Table 13B)
[7] = MAD-3 (150 mg QD) week 6, SCD patient 0003 (did not adhere to regimen)
[8] = MAD-3 (150 mg QD) week 6, SCD patient 0004
[9] = MAD-3 (150 mg QD) week 6, SCD patient 0005
[10] = six SCD patients, 8 weeks (MAD-1 then MAD-2)

T1 sequence (P69905 2-142 limits assumed): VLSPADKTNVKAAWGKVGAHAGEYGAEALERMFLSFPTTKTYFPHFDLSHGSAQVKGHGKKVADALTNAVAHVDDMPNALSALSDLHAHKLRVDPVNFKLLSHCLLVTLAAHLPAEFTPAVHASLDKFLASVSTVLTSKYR
T1 sequence (P68871 2-147 limits assumed): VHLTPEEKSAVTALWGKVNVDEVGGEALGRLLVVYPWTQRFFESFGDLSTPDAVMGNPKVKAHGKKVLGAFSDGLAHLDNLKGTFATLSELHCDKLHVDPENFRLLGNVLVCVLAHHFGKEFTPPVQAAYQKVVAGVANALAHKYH

Compound: O=Cc1c(O)cccc1OC[C@@H]1COCCN1C(=O)c1cccnc1CCO [Compound I, (S)-2-hydroxy-6-((4-(2-(2-hydroxyethyl)nicotinoyl)morpholin-3-yl)methoxy)benzaldehyde]
- % Hb occupancy based on Cmax (hemoglobin; HV single 50 mg): 0.88%
- % Hb occupancy based on Cmax (hemoglobin; HV single 100 mg): 1.9%
- % Hb occupancy based on Cmax (hemoglobin; HV single 200 mg): 3.8%
- % Hb occupancy based on Cmax (hemoglobin; HV single 400 mg): 9.5%
- % Hb occupancy based on Cmax (hemoglobin; HV single 800 mg): 16.8%
- % Hb occupancy based on Cmax (hemoglobin; HV single 1400 mg): 25%
- % Hb occupancy based on Cmax (hemoglobin; HV single 2200 mg): 43.9%
- difference in Hb occupancy between fasting and fed states (hemoglobin; HV, 200 mg single dose): no observable difference
- percent Hb occupancy, dependence on dose (hemoglobin; HV, single doses (FIG. 1)): dose-dependent increase
- Hb occupancies compared with voxelotor (hemoglobin; HV, single doses over a similar range): exceed those reported in healthy volunteers receiving single doses of voxelotor
- Number of SAEs [1, 4]: 0
- Number of TEAEs [1, 4]: 6
- Number of TEAEs grade ≥ 3 [1, 4]: 0
- Number of TEAEs leading to study drug discontinuation [1, 4]: 0
- Number of drug-related TEAEs [1, 4]: 1
- Number of TEAEs [1, 5]: 24
- Number of TEAEs grade ≥ 3 [1, 5]: 5
- Number of TEAEs leading to study drug discontinuation [1, 5]: 0
- Number of drug-related TEAEs ([1]; SCD N=6, single dose and multiple dose portions (Table 13A), 1 grade 2 headache, 2 grade 1 diarrhea): 3^a
- Number of SAEs ([1]; SCD N=6, single dose and multiple dose portions (Table 13A), SAEs were grade 3 VOCs): 2^b
- safety and tolerability ([1]; SCD cohort, single dose portion and multiple ascending dose phases): safe and well tolerated
- Number of SAEs [1, 6]: 3
- Number of TEAEs [1, 6]: 33
- Number of TEAEs grade ≥ 3 [1, 6]: 7
- Number of TEAEs leading to study drug discontinuation [1, 6]: 0
- Number of drug-related TEAEs [1, 6]: 4
- tolerability ([1]; adults with SCD, daily maintenance doses of 150 mg): well tolerated
- time to steady-state concentrations with model-selected first doses ([2]; SCD, loading doses followed by 50 mg and 100 mg second doses (FIG. 15)): ≤ 1 week
- half-life ([2]; human, in vivo, SCD, after the last dose (MAD-2), assessed over about 15 weeks, read-out: elimination t1/2 (converted)): ~240 h
- Cmax ([2]; human, plasma, MAD-3 (150 mg QD) week 6, SCD patient 0001, read-out: Plasma (Cmax) Concentration): 6980 ng/mL
- Cmax ([2]; human, plasma, MAD-3 (150 mg QD) week 6, SCD patient 0003 (did not adhere to regimen), read-out: Plasma (Cmax) Concentration): 1610 ng/mL
- Cmax ([2]; human, plasma, MAD-3 (150 mg QD) week 6, SCD patient 0004, read-out: Plasma (Cmax) Concentration): 3830 ng/mL
- Cmax ([2]; human, plasma, MAD-3 (150 mg QD) week 6, SCD patient 0005, read-out: Plasma (Cmax) Concentration): 7610 ng/mL
- Cmax ([2]; human, whole blood, MAD-3 (150 mg QD) week 6, SCD patient 0001, read-out: Whole Blood (Cmax) Concentration): 322000 ng/mL
- Cmax ([2]; human, whole blood, MAD-3 (150 mg QD) week 6, SCD patient 0003 (did not adhere to regimen), read-out: Whole Blood (Cmax) Concentration): 36700 ng/mL
- Cmax ([2]; human, whole blood, MAD-3 (150 mg QD) week 6, SCD patient 0004, read-out: Whole Blood (Cmax) Concentration): 259000 ng/mL
- Cmax ([2]; human, whole blood, MAD-3 (150 mg QD) week 6, SCD patient 0005, read-out: Whole Blood (Cmax) Concentration): 308000 ng/mL
- average hematocrit after washout (returned to baseline levels) ([3]; 5 SCD subjects, after 15-week washout, vs. 23.02%): 23.46%
- Hb levels ([3]; MAD-3 (150 mg QD) week 6, SCD patient 0001): 12.9 g/dL
- Hb levels [3, 7]: 8.9 g/dL
- Hematocrit [3, 7]: 27.6%
- Hb levels [3, 8]: 13.6 g/dL
- Hematocrit [3, 8]: 37.8%
- Hb levels [3, 9]: 10.9 g/dL
- Hematocrit [3, 9]: 30.9%
- decrease in mean hemoglobin after the last dose ([3]; SCD, 15-week washout after MAD-2): 2.2 g/dL
- mean increase in hematocrit from baseline ([3]; SCD, baseline to end of week 8 of treatment): 6.5%
- hemolysis markers (reticulocytes, absolute reticulocytes, LDH, indirect bilirubin) ([3]; all six SCD subjects, 8 weeks (MAD-1 then MAD-2)): improvements in hemolysis markers
- Hb increase at the end of the study (maximum) [3, 10]: up to 1.3 g/dL
- Hb mean increase at the end of the study [3, 10]: 2.3 g/dL
